Assay results published in patent US20230190728A1, “NEW THERAPEUTIC USES OF COMPOUNDS” (PROXIMAGEN, LLC, priority 2020, published 2023).

Tested on: male C57BI/6 mice
Test: LPS-Induced Pulmonary Inflammation Study
Type: in vivo
Conditions: for average lavage TNFα: lavage supernatant, ELISA
Method: This study was to test the efficacy of orally administered compounds as disclosed herein to reduce LPS-induced inflammatory cell infiltration of the lungs, and was carried out in male C57BI/6 mice.
Day 11: Groups 1 and 2 were administered 10% HP-β-CD. Group 3: 7.59 mg dexamethasone 21-phosphate disodium salt (Sigma, Cat. D1159, lot 88H1020, SF 1.316) was dissolved in […] HP-β-CD to prepare a 0.2 mg/mL solution. Group 4: 1 mg Example 7 was dissolved in 4.5 mL HP-β-CD and 7 µL 1 M HCI (MP Biomedicals, Cat. 194055, lot 3956H) with alternating sonication and vortexing. The pH was adjusted by addition of 5 µL 1 M NaOH and the volume brought up to 5 mL with 0.488 mL HP-β-CD to yield a 0.2 mg/mL solution. Group 5: 3 mg Example 7 was dissolved in 4.5 mL HP-β-CD and 20 µL 1 M HCI with alternating sonication and vortexing. The pH was adjusted by addition of 16 µL 1 M NaOH and the volume brought up to 5 mL with 0.464 mL HP-β-CD to yield a 0.6 mg/ mL solution. Group 6: 10 mg Example 7 was dissolved in 4.5 mL HP-β-CD and 66 µL 1 M HCI with alternating sonication and vortexing. The pH was adjusted by addition of 53 µL 1 M NaOH and the volume brought up to 5 mL with 0.381 mL HP-β-CD to yield a 2 mg/mL solution.
25.7 mg lipopolysaccharides (LPS) from E. coli strain 055:B5 (Sigma, Cat. L2880, lot 025M4040V) was dissolved in 2.57 mL sterile saline (Hospira, lot 56-836-FW) to prepare a 10 mg/mL solution.
The mice were numbered, weighed, and dosed orally at 10 mL/kg as in Table 5.
An hour later, the mice were anesthetized, a midline incision was made in the neck, the muscle layers separated by blunt dissection, and 2 mL/kg LPS (20 mg/kg) injected into the trachea (Groups 2-6). The incision was closed with wound clips and the mice returned to cages. Group 1 received 2 mL/kg saline.
Six hours after LPS/saline injection, the mice were anesthetized, the wound clips removed, the trachea was cannulated with a 23 G needle blunt, and the lungs lavaged eight times with 0.5 mL heparinized saline. The lavage was pooled, gently inverted, and a sample retained for white blood cell (WBC) counts and differential analysis. The remainder of the lavage was centrifuged, the supernatants dispensed to one aliquot in labelled Eppendorf tubes which were stored at -80° C. The carcasses were disposed of appropriately.
Day 14: The aliquot of lung lavage supernatant was equilibrated to room temperature, diluted 1:2 and assayed for TNFα by ELISA (R&D Systems, Cat. MTA00B, lot 332141).

[1] = 2 mg/kg oral, one hour pre-treatment (Group 4), did not reach statistical significance
[2] = 6 mg/kg oral, one hour pre-treatment (Group 5)
[3] = 20 mg/kg oral, one hour pre-treatment (Group 6)

## CS(=O)(=O)N1CCN(c2ccc(-c3nc4ccncc4n3-c3ccc(F)cc3)cn2)CC1 [Example 7, 1-{5-[3-(4-Fluorophenyl)-3H-Imidazo[4,5-C]Pyridin-2-Yl]Pyridin-2-Yl}-4-Methanesulfonylpiperazine]
[1]
  reduction in infiltrating inflammatory cells: 3%
  reduction in lavage TNFα content: 10%
  reduction in neutrophils in the lavage fluid: 27%
6 mg/kg oral, one hour pre-treatment
  reduction in neutrophils in the lavage fluid: 97%
[2]
  reduction in infiltrating inflammatory cells: 70%
  reduction in lavage TNFα content: 65%
20 mg/kg oral, one hour pre-treatment
  reduction in neutrophils in the lavage fluid: 97%
[3]
  reduction in infiltrating inflammatory cells: 93%
  reduction in lavage TNFα content: 74%
2, 6, 20 mg/kg oral prior to LPS challenge, in words
  effect of one hour oral pre-treatment on all measured parameters: significant dose-dependent reduction in all measured parameters
FIG. 1, in words
  effect of oral pre-treatment on LPS-induced pulmonary Neutrophil infiltration: decreases neutrophil infiltration in lung tissue
FIG. 2, in words
  effect of oral pre-treatment on LPS-induced pulmonary lavage TNFa content: decreases TNFa content in pulmonary lavage
Group 4, 2 mg/kg oral 1 h before LPS, Mean SD
  average lavage TNFα: 337.00 pg/mL
Group 4, 2 mg/kg oral 1 h before LPS, lung lavage 6 h after LPS, Mean SD
  Neutrophils: 583 204
Group 5, 6 mg/kg oral 1 h before LPS, Mean SD
  average lavage TNFα: 132.90 pg/mL
Group 6, 20 mg/kg oral 1 h before LPS, Mean SD
  average lavage TNFα: 98.87 pg/mL
